Reference: PubChem BioAssay AID1963450 (Molecular Pharmacology Branch, DTP, NCI, 2024)
“And” between values parts separate entries of the source, which are not always exact repeats. Identical values can stand only once.

System: 556581-035-R-J1-PDC complex spheroid growth
Assay: Anticancer human tumor 556581-035-R-J1-PDC patient-derived ovarian carcinoma cell line growth inhibition [Asc]
Details: for viability, T/C: stronger effect = lower value
Procedure, shortened: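 Tumor cells were grown as complex spheroids with human endothelial cells (HUVEC) and human mesenchymal stem cells as stroma. Agents were tested alone and in combination, in half-log steps down from the clinical Cmax, or from 10 microM where Cmax was unknown.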
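Note: spheroids exposed to agents for 7 days before viability read.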

Cc1nc(N2CCC3(CC2)COC(C)C3N)c(CO)nc1Sc1ccnc(N)c1Cl (configuration not stated) was tested, and the viability, T/C (compound 0.00949 µM) was 111% (2×) and 89.8%, the viability, T/C (compound 0.03 µM) was 101% and 92.6% and 91.2% and the viability, T/C (compound 0.0949 µM) was 87.5% and 79.8% and 84%. The viability, T/C (compound 0.3 µM) was 81.9% and 68.8% and 83.9%, the viability, T/C (compound 0.949 µM) was 62.8% and 61.9% and 56.5% and the viability, T/C (compound 3 µM) was 44.7% and 51% and 51.8%. The IC50 (curve of compound) was 2290 nM and > 3000 nM.

Work on Cn1ncnc1[C@H]1c2n[nH]c(=O)c3cc(F)cc(c23)N[C@@H]1c1ccc(F)cc1 + CNC(C)C(=O)NC1CN(S(=O)(=O)c2cccc(S(=O)(=O)N3CCC4CCC(C(=O)NC(c5ccccc5)c5ccccc5)N4C(=O)C(NC(=O)C(C)NC)C3)c2)CCC2CCC(C(=O)NC(c3ccccc3)c3ccccc3)N2C1=O yielded an IC50 (curve of first compound, second compound 0.01 µM) greater than 100 nM, an IC50 (curve of first compound, second compound 0.0316 µM) greater than 100 nM and an IC50 (curve of first compound, second compound 0.1 µM) greater than 100 nM. It also gave an IC50 (curve of first compound, second compound 0.316 µM) greater than 100 nM, an IC50 (curve of first compound, second compound 1 µM) greater than 100 nM and a viability, T/C (second compound 0.01 µM, first compound 0.000316 µM) of 69.2%. For the same compound, the viability, T/C (second compound 0.01 µM, first compound 0.001 µM) was 69.1%, the viability, T/C (second compound 0.01 µM, first compound 0.00316 µM) was 80.4% and the viability, T/C (second compound 0.01 µM, first compound 0.01 µM) was 83.8%. For the same compound, the viability, T/C (second compound 0.01 µM, first compound 0.0316 µM) was 71.4%, the viability, T/C (second compound 0.01 µM, first compound 0.1 µM) was 72.9% and the viability, T/C (second compound 0.0316 µM, first compound 0.000316 µM) was 84.4%. The viability, T/C (second compound 0.0316 µM, first compound 0.001 µM) was 98.2%, the viability, T/C (second compound 0.0316 µM, first compound 0.00316 µM) was 79.2% and the viability, T/C (second compound 0.0316 µM, first compound 0.01 µM) was 77%. It also gave a viability, T/C (second compound 0.0316 µM, first compound 0.0316 µM) of 89.9%, a viability, T/C (second compound 0.0316 µM, first compound 0.1 µM) of 88.8% and a viability, T/C (second compound 0.1 µM, first compound 0.000316 µM) of 92.7%. It also gave a viability, T/C (second compound 0.1 µM, first compound 0.001 µM) of 73.7%, a viability, T/C (second compound 0.1 µM, first compound 0.00316 µM) of 65.5% and a viability, T/C (second compound 0.1 µM, first compound 0.01 µM) of 69.2%. The viability, T/C (second compound 0.1 µM, first compound 0.0316 µM) was 69.2%, the viability, T/C (second compound 0.1 µM, first compound 0.1 µM) was 62.2% and the viability, T/C (second compound 0.316 µM, first compound 0.000316 µM) was 76.3%. The viability, T/C (second compound 0.316 µM, first compound 0.001 µM) was 74%, the viability, T/C (second compound 0.316 µM, first compound 0.00316 µM) was 63.8% and the viability, T/C (second compound 0.316 µM, first compound 0.01 µM) was 74%. The viability, T/C (second compound 0.316 µM, first compound 0.0316 µM) was 77.4%, the viability, T/C (second compound 0.316 µM, first compound 0.1 µM) was 69.9% and the viability, T/C (second compound 1 µM, first compound 0.000316 µM) was 78.8%. For the same compound, the viability, T/C (second compound 1 µM, first compound 0.001 µM) was 77.6%, the viability, T/C (second compound 1 µM, first compound 0.00316 µM) was 71.1% and the viability, T/C (second compound 1 µM, first compound 0.01 µM) was 69.5%. For the same compound, the viability, T/C (second compound 1 µM, first compound 0.0316 µM) was 71.8% and the viability, T/C (second compound 1 µM, first compound 0.1 µM) was 67%.
